Laboratory results from article PMC5371824, “Phosphatidylinositol (4,5)-bisphosphate dynamically regulates the K2P background K^+ channel TASK-2” (Scientific Reports, 2017).
Changes are numbered by the printed parent chain. “Also recorded” adds a separate entry of the source. One block for each molecule: values may come before it.

Experiments:
[1] = target: T1, TASK-2 (Mus musculus, UniProt F6V9U5); assay: Excised inside-out patch recording from HEK-293 cells over-expressing TASK-2; format: biochemical; details: for Stimulating effect on TASK-2-mediated currents after run-down: diC8 PIP added to inside-out excised patches; for Maximal fold effect on TASK-2 current (normalised to current in absence of PIP) / EC50: -60 mV, from fits, means ± SEM; for EC50: read-out: K0.5 (EC50) for activation of TASK-2 current
T1 construct: expressed in transfected cells; host or cells: HEK-293
T1 sequence (F6V9U5 1-502): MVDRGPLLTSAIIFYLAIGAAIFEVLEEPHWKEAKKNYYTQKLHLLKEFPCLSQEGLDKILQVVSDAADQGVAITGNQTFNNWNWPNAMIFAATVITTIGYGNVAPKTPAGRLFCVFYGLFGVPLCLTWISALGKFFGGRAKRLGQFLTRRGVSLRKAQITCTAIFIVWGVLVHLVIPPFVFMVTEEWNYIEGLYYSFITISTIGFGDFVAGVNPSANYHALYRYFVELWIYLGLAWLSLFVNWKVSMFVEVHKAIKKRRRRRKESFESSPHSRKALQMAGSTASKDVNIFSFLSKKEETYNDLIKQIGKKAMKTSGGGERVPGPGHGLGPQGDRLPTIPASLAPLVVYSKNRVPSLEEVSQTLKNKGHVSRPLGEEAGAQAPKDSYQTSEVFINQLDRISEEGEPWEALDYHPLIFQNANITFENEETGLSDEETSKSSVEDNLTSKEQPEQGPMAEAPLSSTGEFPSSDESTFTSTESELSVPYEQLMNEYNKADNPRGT
Protocol: Recordings in the inside-out isolated patch configuration were performed in the gap-free mode at −60 mV. The inside aspect of the patch was bathed with a solution containing in mM: 10 KCl, 10 Glucose, 1 MgCl2, 10 EGTA, 1 Na3ATP, 0.1 GTP, 6.8 g/100 ml Sucrose, 10 Hepes/Tris, pH 7.4. The pipette contained in mM: 140 KCl, 10 Glucose, 6.8 g/100 ml Sucrose, 10 Hepes/Tris pH 7.4. For isolated patches, borosilicate capillaries (Harvard Apparatus GC150F-10 1.5 ODx0.86 ID) were fire polished to 4–5 MΩ and covered in beeswax. Acquisition was at 10 kHz with filter at 3 kHz (4-pole Bessel) and analysis was done with Clampfit 9.0 (Axon Instruments, Foster City, CA, USA). Traces shown are prints from crude Clampfit screen shots and quantification was done using the average currents were calculated at intervals using Clampfit after baseline adjustment.

[2] = target: T2, TASK-2-K297C (Mus musculus, UniProt F6V9U5, K297C); assay: Excised inside-out patch recording, TASK-2-K297C mutant; format: biochemical; details: 2 mM reducing agent, inside-out patch
T2 construct: expressed in transfected cells; host or cells: HEK-293
T2 sequence (F6V9U5 1-502 K297C): T1 sequence (F6V9U5 1-502) with K297C
Protocol: Figure 6 Scanning of potential sites of interaction of TASK-2 with PI(4,5)P2 by cysteine mutagenesis of intracellular basic residues. (A) Schematic representation of TASK-2 topology showing the sequences of segments of the protein predicted to be intracellular or intracellular-facing. Basic residues are highlighted in red. (B) Recording from an excised inside-out patch of membrane taken from a HEK-293 cell over-expressing TASK-2. The patch was held at −60 mV in the presence of 1 mM ATP. At the intervals indicated by the boxes the intracellular aspect of the membrane was exposed to 300 μM Neomycin and then to 100 μM TPeA. At the end of the TPeA period the patch was additionally exposed to 1 mM MTSET as shown by the black box. (C and D) experiments as in (B), but with inside-out membrane patches obtained from cells expressing the mutants TASK-2-H327C and TASK-2-K297C respectively. In D the reducing agent DTT was also added at 2 mM. (E) Summary of experiments comparing the current before and after treatment with MTSET.
Mus musculus TASK-2 (GenBank accession No. AF319542) plasmid was that obtained from mouse kidney. The cDNAs was subcloned into the pCR3.1 vector. Mutations were made by site-directed mutagenesis into the pCR3.1 vector as previously described[69] and confirmed by sequencing. HEK-293 cells were cultured in Dulbecco’s modified Eagle’s medium (DMEM) and F12 Ham’s medium at a 1:1 ratio and supplemented with 10% fetal calf serum at 37 °C in 5% CO2. For electrophysiological experiments, transient transfections were performed by electroporation, using CD8 cotransfection to identify effectively transfected cells. […] Experiments were performed 4–8 h after electroporation. […]
Recordings in the inside-out isolated patch configuration were performed in the gap-free mode at −60 mV. […] Traces shown are prints from crude Clampfit screen shots and quantification was done using the average currents were calculated at intervals using Clampfit after baseline adjustment.

[3] = target: T1, TASK-2; assay: Whole-cell patch-clamp of HEK-293 cells expressing TASK-2; format: cell-based
Protocol: Mus musculus TASK-2 (GenBank accession No. AF319542) plasmid was that obtained from mouse kidney. The cDNAs was subcloned into the pCR3.1 vector. Mutations were made by site-directed mutagenesis into the pCR3.1 vector as previously described[69] and confirmed by sequencing. HEK-293 cells were cultured in Dulbecco’s modified Eagle’s medium (DMEM) and F12 Ham’s medium at a 1:1 ratio and supplemented with 10% fetal calf serum at 37 °C in 5% CO2. For electrophysiological experiments, transient transfections were performed by electroporation, using CD8 cotransfection to identify effectively transfected cells. […] Experiments were performed 4–8 h after electroporation. In experiments with the voltage-sensitive phosphatase TASK-2 or its mutants were co-electroporated with a pCR3.1-DrVSP-IRES-CD8 vector.
Transiently transfected HEK-293 cells in 35 mm Petri dishes were transferred to the stage of an inverted microscope for study. There they were continuously superfused with a bathing solution containing (in mM): 67.5 Na2SO4, 4 KCl, 1 K gluconate, 2 CaCl2, 1 MgCl2, 105 sucrose, and 10 Hepes/Tris (pH 7.5) (standard solution). A high K^+ solution was obtained by equimolar replacement of Na^+ by K^+. The pipette solution contained (mM) 8 KCl, 132 potassium gluconate, 1 MgCl2, 10 EGTA, 1 Na3ATP, 0.1 GTP, 10 HEPES/Tris, pH 7.4. Standard whole-cell, patch-clamp recordings were performed as described elsewhere. All our whole-cell experiments keep both intra- and extracellular chloride at 10 mM and although currents were measured at several potentials, data mostly reported are those obtained at 0 mV. Potentials were corrected for liquid junction shifts. Acquisition and analysis was done with Clampfit 9.0 (Axon Instruments, Foster City, CA, USA). Further data analysis was done using the curve fitting features of SigmaPlot v. 12 (Systat Software Inc., San Jose, CA, USA).

[4] = test system: TASK-3; assay: Whole-cell current in TASK-3-expressing cells; format: cell-based; details: 100 nM 1,2-dioctanoyl-sn-glycerol, pulses to 0 mV from -75 mV
Protocol: Figure 3 Gq protein coupled receptor inhibition of TASK-2 and minor effect of diacylglycerol. (A) Effect of activation of the angiotensin II receptor AT1 on TASK-2-mediated currents. HEK-293 cells were co-transfected with AT1 and TASK-2, or the TASK-2-K257A-K258A mutant. Current was monitored by brief pulses to 0 mV from a holding potential of −75 mV. Angiotensin II at a concentration of 1 μM was added during the indicated time. Results are means ± SEM of 6 experiments for TASK-2 and 4 experiments for TASK-2-K257A-K258A. (B) Effect of a diacylglycerol analogue assayed on TASK-2- and TASK-3-expressing cells. Current was monitored by brief pulses to 0 mV from a holding potential of −75 mV. The box labelled DAG indicates the addition of diacylglycerol short-chain analogue 1,2-dioctanoyl-sn-glycerol at 100 nM. Results are means ± SEM of 5 experiments for TASK-2 and 8 experiments for TASK-3.
Transiently transfected HEK-293 cells in 35 mm Petri dishes were transferred to the stage of an inverted microscope for study. […] All our whole-cell experiments keep both intra- and extracellular chloride at 10 mM and although currents were measured at several potentials, data mostly reported are those obtained at 0 mV. […]

[5] = diC8 PIP, inside-out patch, absence of ATP

Reversal of MTSET inhibition of WT TASK-2 ([1]; 2 mM reducing agent, inside-out patch, Fig. S4): reversibility of the effect | Reversal of the MTSET effect on TASK-2-K297C [2]: reversed, at least partially
SMILES: O[C@@H](CS)[C@@H](O)CS (racemic) [DTT, dithiothreitol]

SMILES: Nc1ncnc2c1ncn2[C@@H]1O[C@H](CO[P@](=O)(O)O[P@](=O)(O)O[P@@](=O)(O)S)[C@@H](O)[C@H]1O [ATP-γ-S, adenosine-5′-(γ-thio)-triphosphate]
Ability to support TASK-2-mediated current in place of ATP ([3]; whole-cell, pipette solution with non-hydrolysable analogue, 0 mV): unable to support the TASK-2-mediated current

Effect on TASK-2 current ([3]; 100 nM 1,2-dioctanoyl-sn-glycerol, pulses to 0 mV from -75 mV): only a minor effect
SMILES: CCCCCCCC(=O)OC[C@H](CO)OC(=O)CCCCCCC [DAG, 1,2-dioctanoyl-sn-glycerol]
Effect on TASK-3 current [4]: strong inhibition

Effect of readmitted ATP relative to the maximal effect elicited by the PIP ([1]; 1 mM ATP added after PIP, inside-out patches, Fig. S3): 1.4 fold | Stimulating effect on TASK-2-mediated currents after run-down ([1]; absence of ATP): Robust, but intermediate effects | Maximal fold effect on TASK-2 current (normalised to current in absence of PIP) [1, 5]: 4.3 ± 0.4 fold | EC50 [1, 5]: 48.4 ± 4.6 µM | Hill coefficient nH of dose response curve [1, 5]: 2
SMILES: CCCCCCCC(=O)OC[C@H](COP(=O)(O)O[C@H]1[C@H](O)[C@@H](O)[C@H](OP(=O)(O)O)[C@@H](OP(=O)(O)O)[C@H]1O)OC(=O)CCCCCCC [PI(3,4)P2, phosphatidylinositol 3,4-bisphosphate diC8]

Maximal fold effect on TASK-2 current (normalised to current in absence of PIP) [1, 5]: 11.6 ± 1.6 fold | EC50 [1, 5]: 29.8 ± 10.2 µM
SMILES: CCCCCCCC(=O)OC[C@H](COP(=O)(O)O[C@H]1[C@H](O)[C@@H](OP(=O)(O)O)[C@H](OP(=O)(O)O)[C@@H](OP(=O)(O)O)[C@H]1O)OC(=O)CCCCCCC [PI(3,4,5)P3, phosphatidylinositol 3,4,5-trisphosphate diC8]
Stimulating effect on TASK-2-mediated currents after run-down ([1]; absence of ATP): Largest effect; also recorded: most potent effect
